The subject of assay [1] is Selenastrum capricornutum. As to the kind of experiment: Rapid bioassay screening for selective algicides (LOEC, LCIC). Particulars: for MIC / minimal effective concentration: Selenastrum capricornutum; for MIC: read-out: LCIC (lowest-complete-inhibition concentration), Selenastrum capricornutum; for minimal effective concentration: read-out: LOEC (lowest-observed-effect concentration), Selenastrum capricornutum. Type of assay: cell-based.
Text: (§1) These were screened in the laboratory by the method of Schrader et al. (K. K. Schrader, M. Q. de Regt, C. S. Tucker and S. O. Duke, A rapid bioassay for selective algicides. Weed Technol. (1997), vol. 11, pp. 767-774) for algicidal activity.
(§2) The anthraquinone derivatives were screened for selective toxicity towards Oscillatoria perornata, previously isolated from a Mississippi catfish pond, using the method of Schrader et al. (1997). The green alga Selenastrum capricornutum (obtained from the United States Environmental Protection Agency, Corvallis, Oreg.) was used as the representative green algal species in the bioassay since it is a common species found in southeastern United States catfish ponds. Absorbance readings were graphed, and graphs were used to determine the LOEC (lowest-observed-effect concentration) and the LCIC (lowest-complete-inhibition concentration) for each anthraquinone analog. In addition, a 96-hour 50% inhibition concentration (IC50) was determined for DNA1-19-1 and DNA2-59-1 by using the method described by Schrader et al. (1998b). Stock solutions of DNA1-19-1 and DNA2-59-1 were prepared so that final concentrations screened for 96-hour IC50 determinations were as follows: 1) 0, 0.01, 0.033, 0.1, 0.333, 1.0, 3.3, and 10.0 μM DNA1-19-1 for both O. perornata and S. capricornutum; 2) 0, 0.003, 0.01, 0.033, 0.1, 0.333, 1.0, and 3.333 μM DNA2-59-1 for O. perornata; and 3) 0, 0.1, 0.333, 1.0, 3.333, 10.0, 33.333, and 100.0 μM DNA2-59-1 for S. capricornutum. Estimation of the IC50 was determined by plotting 96-hour absorbance readings against logarithmic dilution values of the anthraquinone analogs. The screening results of the anthraquinone derivatives and commercially available analogs of anthraquinone are presented in Tables 1 and 2, respectively. The results in Table 1 reveal that DNA1-19-1 and DNA2-59-1 are the most promising analogs since these two compounds had the lowest LOEC and LCIC values for O. perornata (10 nM and 100 nM, respectively). Based upon IC50 results in Table 3, DNA2-59-1 appears to be more toxic and selective towards O. perornata than DNA1-19-1.
as §2, with “(A rapid bioassay for selective algicides. Weed Technol. (1997), vol. 11, pp. 767-774).” for “(1997).”, “(K. K. Schradar, M. Q. de Regt, P. D. Tidwell, C. S. Tucker and S. O. Duke, Selective growth inhibition of the musty-odor producing cyanobacterium Oscillatoria cf. chalybea by natural compounds. Bull. Environ. Contam. Toxicol. (1998a), vol.60, pp. 651-658).” for “(1998b).”, “The screening results of the anthraquinone derivatives and commercially available analogs of anthraquinone are presented in Tables 1 and 2, respectively. The results in Table 1 reveal that DNA1-19-1 and DNA2-59-1 are the most promising analogs since these two compounds had the lowest LOEC and LCIC values for O. perornata (10 nM and 100 nM, respectively). Based upon IC50 results in Table 3, DNA2-59-1 appears to be more toxic and selective towards O. perornata than DNA1-19-1.” left out

A further assay has as its system Oscillatoria perornata. The assay is described as above. Type of assay: cell-based. Particulars: for MIC: read-out: LCIC (lowest-complete-inhibition concentration), Oscillatoria perornata; for minimal effective concentration: read-out: LOEC (lowest-observed-effect concentration), Oscillatoria perornata.
Text: as §1, §2
as §2, with “(A rapid bioassay for selective algicides. Weed Technol. (1997), vol. 11, pp. 767-774).” for “(1997).”, “(K. K. Schradar, M. Q. de Regt, P. D. Tidwell, C. S. Tucker and S. O. Duke, Selective growth inhibition of the musty-odor producing cyanobacterium Oscillatoria cf. chalybea by natural compounds. Bull. Environ. Contam. Toxicol. (1998a), vol.60, pp. 651-658).” for “(1998b).”, “The screening results of the anthraquinone derivatives and commercially available analogs of anthraquinone are presented in Tables 1 and 2, respectively. The results in Table 1 reveal that DNA1-19-1 and DNA2-59-1 are the most promising analogs since these two compounds had the lowest LOEC and LCIC values for O. perornata (10 nM and 100 nM, respectively). Based upon IC50 results in Table 3, DNA2-59-1 appears to be more toxic and selective towards O. perornata than DNA1-19-1.” left out

[2] abbreviates: Planktothrix perornata, rapid screening.

Converted amounts (≈) assume the structure as drawn. Where two headings read alike, the source gives them in different places.

With `CCCC(C)NCc1ccc2c(c1)C(=O)c1ccccc1C2=O.O=P(O)(O)O` (centres unmarked) [DNA2-53-1, 2-[Methylamino-N-(1′-methylbutyl)]-9,10-anthraquinone monophosphate], in assay [1] (rapid screening), the “LCIC (lowest-complete-inhibition concentration), Selenastrum capricornutum” value is on record as 100,000 nM and the “LOEC (lowest-observed-effect concentration), Selenastrum capricornutum” value (shortened to “LOEC … Selenastrum capricornutum”) is recorded as 100,000 nM. In the assay on Oscillatoria perornata (rapid screening), the MIC was 0.1 µM and the minimal effective concentration was 0.1 µM.

Regarding `O=C1c2ccccc2C(=O)c2cc(COCCOCCOCCO)ccc21` [DNA3-57-1, 2-Methylene-[2-[2-(2-hydroxyethoxy)ethoxy]ethoxy]-9,10-anthraquinone], in assay [1] (rapid screening), the “LCIC (lowest-complete-inhibition concentration), Selenastrum capricornutum” value is reported as >100,000 nM and the “LOEC … Selenastrum capricornutum” value was >100,000 nM. Further, in the assay on Oscillatoria perornata (rapid screening), the “LCIC (lowest-complete-inhibition concentration), Oscillatoria perornata” value is listed as 10,000 nM and the minimal effective concentration was found to be 0.1 µM.

On to `O=C1c2ccccc2C(=O)c2cc(CO)ccc21` [2-hydroxymethyl-anthraquinone, reference compound], for which the MIC in assay [1] was 100 µM (≈ 23.8 µg/mL); in the assay with Oscillatoria perornata (Planktothrix perornata), 10 µM (≈ 2.38 µg/mL).

For `CCN(CC)Cc1ccc2c(c1)C(=O)c1ccccc1C2=O.O=P(O)(O)O` [DNA2-51-1, 2-[Methylamino-N,N-(diethyl)]-9,10-anthraquinone monophosphate], in assay [1] (rapid screening), the “LCIC (lowest-complete-inhibition concentration), Selenastrum capricornutum” value is 100,000 nM and the “LOEC … Selenastrum capricornutum” value is 10,000 nM. In addition, in the assay on Oscillatoria perornata (rapid screening), the MIC is 0.1 µM and the minimal effective concentration was determined as 0.1 µM.

As to `CN(C)CCCNc1cccc2c1C(=O)c1ccccc1C2=O.O=P(O)(O)O` [DNA2-93-1, 1-amino-N-(propyl-3′-N,N-dimethylamino)-9,10-anthraquinone phosphate], in assay [1] (rapid screening), the “LCIC (lowest-complete-inhibition concentration), Selenastrum capricornutum” value is 100,000 nM and the “LOEC … Selenastrum capricornutum” value is 100,000 nM. For the same compound, in the assay with Oscillatoria perornata (rapid screening), the “LCIC (lowest-complete-inhibition concentration), Oscillatoria perornata” value was 1,000 nM and the “LOEC (lowest-observed-effect concentration), Oscillatoria perornata” value is reported as 1,000 nM.

With `COCCOCCOc1ccc2c(c1)C(=O)c1ccccc1C2=O` [DNA3-5-1, 2-[2-(2-Methoxyethoxy)ethoxy]-9,10-anthraquinone], the MIC was over 100 µM in assay [1] (rapid screening) and 10 µM (≈ 3.26 µg/mL) in the assay with Oscillatoria perornata (setting [2]). The minimal effective concentration in assay [1] (rapid screening) was over 100 µM; in the assay on Oscillatoria perornata (setting [2]), 0.1 µM.

Take `COCCOCCOc1cccc2c1C(=O)c1ccccc1C2=O` [DNA3-7-1, 1-[2-(2-Methoxyethoxy)ethoxy]-9,10-anthraquinone]: in assay [1] (rapid screening), the MIC is over 100 µM and the minimal effective concentration was over 100 µM. Moreover, in the assay with Oscillatoria perornata (setting [2]), the MIC worked out at 100 µM (≈ 32.6 µg/mL) and the minimal effective concentration was 10 µM.

Regarding `COCCOCCOCCOc1ccc2c(c1)C(=O)c1ccccc1C2=O` [DNA3-9-1, 2-[2-[2-(2-methoxyethoxy)ethoxy]ethoxy]-9,10-anthraquinone], in assay [1] (rapid screening), the MIC is over 100 µM and the minimal effective concentration is over 100 µM. For the same compound, in the assay on Oscillatoria perornata (setting [2]), the MIC is 10 µM (≈ 3.7 µg/mL) and the minimal effective concentration was 10 µM.

Turning to `COCCOc1cccc2c1C(=O)c1ccccc1C2=O` [DNA3-13-1, 1-(2-Methoxyethoxy)-9,10-anthraquinone], the MIC in assay [1] (rapid screening) is over 100 µM; in the assay on Oscillatoria perornata (setting [2]), 10 µM (≈ 2.82 µg/mL). Further, the results for the minimal effective concentration (in assay [1] (rapid screening); in the assay on Oscillatoria perornata (setting [2])) were 0.01 µM and 10 µM, respectively.

On to `O=C1c2ccccc2C(=O)c2c(O)ccc(O)c21` [1,4-dihydroxyanthraquinone, reference compound], for which the MIC (in assay [1] (rapid screening); in the assay on Oscillatoria perornata (setting [2])) was over 100 µM each time.

Turning to `O=C1c2ccccc2C(=O)c2c(OCCOCCOCCOCCOCCO)cccc21` [DNA3-49-1, 1-[2-[2-[2-[2-(2-Hydroxyethoxy)ethoxy]ethoxy]ethoxy]ethoxy]-9,10-anthraquinone], the MIC was over 100 µM in assay [1] (rapid screening) and 10 µM (≈ 4.44 µg/mL) in the assay on Oscillatoria perornata (setting [2]). Moreover, the minimal effective concentration in assay [1] (rapid screening) is over 100 µM; in the assay on Oscillatoria perornata (setting [2]), 1 µM.

For the compound `COCCOCCOCCOCc1ccc2c(c1)C(=O)c1ccccc1C2=O` [DNA3-61-1, 2-methylene-[2-[2-(2-methoxyethoxy)ethoxy]ethoxy]-9,10-anthraquinone], in assay [1] (rapid screening), the “LCIC (lowest-complete-inhibition concentration), Selenastrum capricornutum” value is given as >100,000 nM and the “LOEC … Selenastrum capricornutum” value is on record as >100,000 nM. Besides, in the assay on Oscillatoria perornata (rapid screening), the “LCIC (lowest-complete-inhibition concentration), Oscillatoria perornata” value was 10,000 nM and the minimal effective concentration worked out at 0.1 µM.

For `CN(C)CCCNCc1ccc2c(c1)C(=O)c1ccccc1C2=O.O=P(O)(O)O.O=P(O)(O)O` [DNA2-23-1, 2-[Methylamino-N-(propyl-3′-N,N-dimethylamino)]-9,10-anthraquinone diphosphate], in assay [1] (rapid screening), the “LCIC (lowest-complete-inhibition concentration), Selenastrum capricornutum” value is 10,000 nM and the “LOEC … Selenastrum capricornutum” value is 10,000 nM. In the assay with Oscillatoria perornata (rapid screening), the “LCIC (lowest-complete-inhibition concentration), Oscillatoria perornata” value is 1,000 nM and the minimal effective concentration was 0.1 µM.

On to `O=C(O)c1ccc2c(c1)C(=O)c1ccccc1C2=O` [anthraquinone-2-carboxylic acid, reference compound], for which the MIC (in assay [1]; in the assay with Oscillatoria perornata (Planktothrix perornata)) was over 1000 µM in each case.

Take `COCCOCCOCCOCCOc1ccc2c(c1)C(=O)c1ccccc1C2=O` [DNA3-55-1, 2-[2-[2-[2-(2-Methoxyethoxy)ethoxy]ethoxy]ethoxy]-9,10-anthraquinone]: the MIC in assay [1] (rapid screening) is over 100 µM; in the assay with Oscillatoria perornata (setting [2]) it was 100 µM (≈ 41.4 µg/mL). Besides, the minimal effective concentration in assay [1] (rapid screening) is over 100 µM; in the assay on Oscillatoria perornata (setting [2]), 10 µM.

In the case of `CC(C)N(Cc1ccc2c(c1)C(=O)c1ccccc1C2=O)C(C)C.O=P(O)(O)O` [DNA2-49-1, 2-[Methylamino-N,N-(di-1′-methylethyl)]-9,10-anthraquinone monophosphate], in assay [1] (rapid screening), the “LCIC (lowest-complete-inhibition concentration), Selenastrum capricornutum” value turned out to be 1e+06 nM and the “LOEC … Selenastrum capricornutum” value is recorded as 100,000 nM. Also, in the assay with Oscillatoria perornata (rapid screening), the “LCIC (lowest-complete-inhibition concentration), Oscillatoria perornata” value was 1,000 nM and the “LOEC (lowest-observed-effect concentration), Oscillatoria perornata” value is reported as 1,000 nM.

As to `O=C1c2cccc(O)c2C(=O)c2c(O)cccc21` [1,8-dihydroxyanthraquinone, reference compound], the MIC in assay [1] (rapid screening) was over 100 µM; with Oscillatoria perornata (setting [2]), 100 µM (≈ 24 µg/mL).

In the case of `CCN(CC)CCCNCc1ccc2c(c1)C(=O)c1ccccc1C2=O.O=P(O)(O)O.O=P(O)(O)O` [DNA2-25-1, 2-[Methylamino-N-(propyl-3′-N,N-diethylaminopropyl)]-9,10-anthraquinone diphosphate], in assay [1] (rapid screening), the “LCIC (lowest-complete-inhibition concentration), Selenastrum capricornutum” value is on record as 10,000 nM and the “LOEC … Selenastrum capricornutum” value is listed as 10,000 nM. Moreover, in the assay with Oscillatoria perornata (rapid screening), the MIC turned out to be 0.1 µM and the minimal effective concentration came to 0.1 µM.

With `O=C1c2ccccc2C(=O)c2cc(OCCOCCOCCOCCOCCO)ccc21` [DNA3-51-1, 2-[2-[2-[2-[2-(2-Hydroxyethoxy)ethoxy]ethoxy]ethoxy]ethoxy]-9,10-anthraquinone], in assay [1] (rapid screening), the MIC is over 100 µM and the minimal effective concentration was over 100 µM. Moreover, in the assay with Oscillatoria perornata (setting [2]), the MIC was found to be 100 µM (≈ 44.4 µg/mL) and the minimal effective concentration worked out at 0.1 µM.

The record behind these values is patent US6949250B2, “Selective algaecides for control of cyanochloronta” (The United States of America as represented by the …, priority 2002, dated 2005).
